The record followed here is ChEMBL document CHEMBL1201862, “PubChem BioAssay data set” (2004).

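Five compound concentrations were applied to cells in 96-well plates for 48 hours; endpoints were derived by simple linear interpolation of the resulting dose-response curve. GI50 marks 50% less growth.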 Active and inactive are the calls of the source. Rule as the data show it: active = GI50 up to about 1.1 µM and inactive = higher. Where a SMILES comes first, the peptide text is derived from it. The star is where a group is joined. Boc = CC(C)(C)OC(=O)*

Some test systems named below: OVCAR-4; U-251; HT-29; Malme-3M; LOX IMVI; SNB-75; HOP-62; SK-OV-3; IGROV-1; SN12C; A549; OVCAR-5; NCI-H460; NCI-H522; UACC-62; 786-0; NCI-H23; SW-620; MDA-N.
Common to all, as to test: DTP human tumour cell line panel, 48 h

`OCN(CO)c1ccc2c(c1)Cc1cc(F)ccc1-2`: the GI50 – broadly, the concentration at which growth is held to half of that of the control – is 17.8 µM (inactive) in the assay with OVCAR-4; 17.9 µM (inactive) in the assay with U-251; 14.8 µM (inactive) in the assay with HT-29; 18.1 µM (inactive) in the assay on Malme-3M; 17.9 µM (inactive) in the assay on LOX IMVI; 19.1 µM (inactive) in the assay with SNB-75. The GI50 in the assay on HOP-62 is 44.1 µM (inactive); in the assay on SK-OV-3, 25.2 µM (inactive); with IGROV-1, 19.3 µM (inactive); in the assay on SN12C, 18.2 µM (inactive); with A549 it was 21.9 µM (inactive); in the assay on OVCAR-5, 19.1 µM (inactive). For the same molecule, the GI50 in the assay with NCI-H460 is 24.7 µM (inactive); with NCI-H522 it was 19.5 µM (inactive); in the assay with UACC-62 it was 16.6 µM (inactive); in the assay on 786-0 it was 30.1 µM (inactive); with NCI-H23, 33.3 µM (inactive); with SW-620 it was 12.4 µM (inactive).

As to `COc1cc(/C=C/C=C2\CC(C)C/C(=C\C=C\c3ccc(O)c(OC)c3)C2=O)ccc1O` (stereo not given), the GI50 in the assay with OVCAR-4 was 4.83 µM (inactive); in the assay with U-251, 12.1 µM (inactive); with HT-29, 4.08 µM (inactive); in the assay with Malme-3M, 9.48 µM (inactive); in the assay on LOX IMVI, 12.4 µM (inactive); with SNB-75, 15.1 µM (inactive). Besides, the GI50 was 17.4 µM (inactive) in the assay with HOP-62; 4.83 µM (inactive) in the assay with SK-OV-3; 8.41 µM (inactive) in the assay on IGROV-1; 31.3 µM (inactive) in the assay with SN12C; 5.11 µM (inactive) in the assay with A549; 14.4 µM (inactive) in the assay with OVCAR-5. The GI50 in the assay with NCI-H460 was 14.5 µM (inactive); in the assay on NCI-H522 it was 0.522 µM (active); in the assay with UACC-62, 11.9 µM (inactive); in the assay on 786-0 it was 12.4 µM (inactive); with NCI-H23, 12.2 µM (inactive); with SW-620, 12.7 µM (inactive).

For the molecule `S=C(c1c[nH]c2ccccc12)N1CCCCC1`, the GI50 in the assay with U-251 was 64.9 µM (inactive); with HT-29 it was > 100 µM (inactive); in the assay on Malme-3M, > 100 µM (inactive); in the assay with LOX IMVI, > 100 µM (inactive); with HOP-62, > 100 µM (inactive); in the assay with SK-OV-3, > 100 µM (inactive). Moreover, the GI50 was 67.9 µM (inactive) with IGROV-1; > 100 µM (inactive) in the assay on SN12C; > 100 µM (inactive) with MDA-N; > 100 µM (inactive) with OVCAR-5; > 100 µM (inactive) in the assay on NCI-H460; > 100 µM (inactive) in the assay with UACC-62. For the same molecule, the GI50 with 786-0, in the assay on NCI-H23 and in the assay with SW-620 was > 100 µM (inactive) in each case.

For the molecule `CC(C)(C)[Si](C)(C)OCC1OC(n2ccc(=O)[nH]c2=O)C(O[Si](C)(C)C(C)(C)C)/C1=N/O` (stereo not given), the GI50 in the assay with OVCAR-4 is 4.25 µM (inactive); in the assay on U-251, 4.25 µM (inactive); in the assay on HT-29, 2.84 µM (inactive); in the assay on LOX IMVI, 4.67 µM (inactive); in the assay with SNB-75, 18.5 µM (inactive); in the assay with HOP-62, 4.63 µM (inactive). Also, the GI50 is 6.41 µM (inactive) with SK-OV-3; 4.18 µM (inactive) in the assay with IGROV-1; 3.3 µM (inactive) in the assay on SN12C; 4.08 µM (inactive) in the assay with MDA-N; 3.14 µM (inactive) in the assay with A549; 3.9 µM (inactive) in the assay with OVCAR-5. The GI50 with NCI-H460 is 3.44 µM (inactive); in the assay on UACC-62, 5.96 µM (inactive); in the assay with 786-0 it was 2.64 µM (inactive); with NCI-H23, 3.44 µM (inactive); in the assay with SW-620 it was 4.38 µM (inactive).

With `CC1=CC2C(C(C)C)CC1C1C(=O)OC(=O)C21` (stereo not given), the GI50 in the assay with OVCAR-4 was 91 µM (inactive); with U-251 it was 64.1 µM (inactive); with HT-29, > 100 µM (inactive); in the assay with Malme-3M it was 52 µM (inactive); in the assay with LOX IMVI it was > 100 µM (inactive); in the assay with SNB-75 it was > 100 µM (inactive). Besides, the GI50 was 99.3 µM (inactive) in the assay on HOP-62; > 100 µM (inactive) in the assay with SK-OV-3; 14.4 µM (inactive) with IGROV-1; 79.3 µM (inactive) with SN12C; > 100 µM (inactive) in the assay with A549; > 100 µM (inactive) in the assay on OVCAR-5. Besides, the GI50 in the assay on NCI-H460 was > 100 µM (inactive); in the assay on NCI-H522 it was 52.7 µM (inactive); in the assay with UACC-62, > 100 µM (inactive); in the assay on 786-0, > 100 µM (inactive); in the assay with NCI-H23, > 100 µM (inactive); in the assay on SW-620, 86.9 µM (inactive).

Turning to `CC1=NC2=Nc3nc(C)cc[n+]3CN2C=C1`, the GI50 with OVCAR-4 was > 100 µM (inactive); in the assay on U-251 it was > 100 µM (inactive); in the assay with HT-29 it was 31.8 µM (inactive); in the assay on Malme-3M it was 49.5 µM (inactive); in the assay with LOX IMVI, 29.8 µM (inactive); in the assay on SNB-75, > 100 µM (inactive). For the same molecule, the GI50 in the assay with HOP-62 was 89.3 µM (inactive); in the assay with SK-OV-3, > 100 µM (inactive); in the assay on IGROV-1 it was 39.9 µM (inactive); in the assay with SN12C, 92.5 µM (inactive); in the assay on A549, 79.3 µM (inactive); in the assay on OVCAR-5, > 100 µM (inactive). Further, the GI50 in the assay on NCI-H460 is 43.2 µM (inactive); in the assay with NCI-H522 it was > 100 µM (inactive); with UACC-62, 44.2 µM (inactive); in the assay on 786-0, 48.3 µM (inactive); in the assay on NCI-H23, > 100 µM (inactive); in the assay with SW-620, > 100 µM (inactive).

With `CC(=O)Nc1sccc1S(=O)(=O)c1ccc(Cl)cc1`, the GI50 in the assay on OVCAR-4 is > 100 µM (inactive); with U-251, > 100 µM (inactive); in the assay with HT-29 it was > 100 µM (inactive); in the assay on Malme-3M it was > 100 µM (inactive); with SNB-75, 55.6 µM (inactive); in the assay with SK-OV-3, > 100 µM (inactive). Besides, the GI50 in the assay on IGROV-1, in the assay with SN12C, in the assay with A549, in the assay with OVCAR-5, with NCI-H460 and in the assay with NCI-H522 was > 100 µM (inactive) throughout. Besides, the GI50 with UACC-62, in the assay with 786-0, in the assay with NCI-H23 and with SW-620 was > 100 µM (inactive) each time.

For the molecule `COC(=O)C(Cc1c[nH]c2ccccc12)NC(=O)C(Cc1c[nH]c2ccccc12)NC(=O)C(Cc1c[nH]c2ccccc12)NC(=O)OC(C)(C)C` (stereo not drawn) (Boc-Trp-Trp-Trp-OMe; configuration not given here), the GI50 was 18.5 µM (inactive) in the assay on U-251; 19.2 µM (inactive) in the assay with HT-29; > 100 µM (inactive) in the assay with Malme-3M; 19.8 µM (inactive) in the assay on SNB-75; 17.9 µM (inactive) in the assay on HOP-62; 18.7 µM (inactive) with IGROV-1. The GI50 in the assay with SN12C is 18.9 µM (inactive); with MDA-N it was 20 µM (inactive); in the assay on A549 it was 39.2 µM (inactive); in the assay on OVCAR-5, 17.9 µM (inactive); in the assay with NCI-H460, 20.2 µM (inactive); with UACC-62, 18.8 µM (inactive). The GI50 in the assay on 786-0 was 17.8 µM (inactive); in the assay with NCI-H23, 16.2 µM (inactive); in the assay on SW-620, 21.5 µM (inactive).
